Several values for one entry are separate records, joined by “and”; a condition that tells them apart may be missing. Identical values can stand only once. Inconclusive results and toxic doses are left out.

This note sets out measurements from PubChem BioAssay AID248 (DTP/NCI, 2004).

In the assay the test system is L1210 leukemia ip in BDF1 mice, survival T/C. Nature of the assay: NCI In Vivo Anticancer Drug Screen. Data for tumor model L1210 Leukemia (intraperitoneal) in B6D2F1 (BDF1) mice. Conditions: endpoint: mean survival time, higher = longer survival. Summed up:
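Read-out is survival time, reported as the treated-group measurement over the vehicle-control measurement.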

Where [1] appears, read: dose: 200.0 mg/kg/injection, schedule: Q01DX009 (ip), vehicle: carboxymethylcellulose (CMC).
Where [2] appears, read: dose: 100.0 mg/kg/injection, schedule: Q04DX003 (ip), vehicle: Klucel (hydroxypropylcellulose) (HPC).
The mark [3] stands for this setting: dose: 200.0 mg/kg/injection, schedule: Q01DX009 (ip), vehicle: Klucel (hydroxypropylcellulose) (HPC).
Setting [4] is: dose: 400.0 mg/kg/injection, schedule: Q01DX009 (ip), vehicle: Klucel (hydroxypropylcellulose) (HPC).
Setting [5] is: dose: 100.0 mg/kg/injection, schedule: Q01DX001 (ip), vehicle: saline.
Where [6] appears, read: dose: 200.0 mg/kg/injection, schedule: Q01DX001 (ip), vehicle: saline.
[7] abbreviates: dose: 400.0 mg/kg/injection, schedule: Q01DX001 (ip), vehicle: saline.

`Cc1cc(NC(=O)N(CCCl)N=O)c(C)cc1NC(=O)c1ccccc1`: the T/C runs as follows: (dose: 4.2 mg/kg/injection, schedule: Q01DX009 (ip), vehicle: carboxymethylcellulose (CMC)) 124 % of control; (dose: 9.6 mg/kg/injection, schedule: Q01DX001 (ip), vehicle: carboxymethylcellulose (CMC)) 111 % of control; (dose: 14.0 mg/kg/injection, schedule: Q01DX009 (ip), vehicle: other) 186 % of control; (dose: 22.0 mg/kg/injection, schedule: Q01DX009 (ip), vehicle: other) 196 % of control; (dose: 33.0 mg/kg/injection, schedule: Q01DX009 (ip), vehicle: other) 213 % of control; (dose: 50.0 mg/kg/injection, schedule: Q01DX009 (ip), vehicle: carboxymethylcellulose (CMC)) 180 % of control. The T/C by setting is: (dose: 58.0 mg/kg/injection, schedule: Q01DX009 (ip), vehicle: carboxymethylcellulose (CMC)) 175 % of control; (dose: 75.0 mg/kg/injection, schedule: Q01DX001 (ip), vehicle: carboxymethylcellulose (CMC)) 159 % of control; (dose: 75.0 mg/kg/injection, schedule: Q01DX009 (ip), vehicle: carboxymethylcellulose (CMC)) 193 % of control; (dose: 88.0 mg/kg/injection, schedule: Q01DX009 (ip), vehicle: carboxymethylcellulose (CMC)) 190 % of control; (dose: 120.0 mg/kg/injection, schedule: Q01DX001 (ip), vehicle: carboxymethylcellulose (CMC)) 150 % of control; (dose: 132.0 mg/kg/injection, schedule: Q01DX009 (ip), vehicle: carboxymethylcellulose (CMC)) 228 % of control. For the same compound, the T/C is, setting by setting: (dose: 177.0 mg/kg/injection, schedule: Q01DX001 (ip), vehicle: carboxymethylcellulose (CMC)) 153 % of control; under setting [1], 163 % of control; (dose: 266.0 mg/kg/injection, schedule: Q01DX001 (ip), vehicle: carboxymethylcellulose (CMC)) 162 % of control; (dose: 266.0 mg/kg/injection, schedule: Q01DX001 (ip), vehicle: other) 91 % of control; (dose: 400.0 mg/kg/injection, schedule: Q01DX001 (ip), vehicle: carboxymethylcellulose (CMC)) 245 % of control; (dose: 600.0 mg/kg/injection, schedule: Q01DX001 (ip), vehicle: carboxymethylcellulose (CMC)) 219 % of control.
As to `O=C(Nc1ccccc1F)c1ccc(Cl)c(Cl)c1`, the T/C is, setting by setting: under setting [2], 98 % of control; under setting [3], 92 % of control; (dose: 200.0 mg/kg/injection, schedule: Q04DX003 (ip), vehicle: Klucel (hydroxypropylcellulose) (HPC)) 96 % of control; under setting [4], 86 % of control; (dose: 400.0 mg/kg/injection, schedule: Q04DX003 (ip), vehicle: Klucel (hydroxypropylcellulose) (HPC)) 93 % of control.
Consider `NC(=NCc1ccccc1)C(F)(F)C(F)(F)F`, for which the T/C by setting is: (dose: 44.0 mg/kg/injection, schedule: Q01DX Z (ip), vehicle: other) 103 % of control and 118 % of control; (dose: 66.0 mg/kg/injection, schedule: Q01DX Z (ip), vehicle: other) 100 % of control and 101 % of control; (dose: 100.0 mg/kg/injection, schedule: Q01DX Z (ip), vehicle: other) 103 % of control and 90 % of control; (dose: 150.0 mg/kg/injection, schedule: Q01DX Z (ip), vehicle: other) 92 % of control and 90 % of control.
`O=C1CCC(N2C(=O)C3CCCCC3C2=O)C(=O)N1` (stereo not drawn): the T/C (dose: 100.0 mg/kg/injection, schedule: Q04DX003 (ip), vehicle: saline) is 97 % of control; the T/C (dose: 200.0 mg/kg/injection, schedule: Q04DX003 (ip), vehicle: saline) is 93 % of control; the T/C (dose: 400.0 mg/kg/injection, schedule: Q04DX003 (ip), vehicle: saline) was 101 % of control.
With `Cc1c(/C=N/NC(N)=S)[nH]c(=O)[nH]c1=O`, the T/C is 94 % of control under setting [5], 94 % of control under setting [6] and 109 % of control under setting [7].
Turning to `CCCCC(=O)N/N=C\c1ccc(OCc2ccccc2)cc1`, the T/C was 87 % of control under setting [5], 92 % of control under setting [6] and 87 % of control under setting [7].
For the compound `Cc1c(Cl)cccc1NC(=O)Nc1ccccc1`, the T/C by setting is: (dose: 25.0 mg/kg/injection, schedule: Q01DX009 (ip), vehicle: DMSO) 95 % of control; (dose: 50.0 mg/kg/injection, schedule: Q01DX009 (ip), vehicle: DMSO) 95 % of control; (dose: 100.0 mg/kg/injection, schedule: Q01DX009 (ip), vehicle: DMSO) 88 % of control; (dose: 100.0 mg/kg/injection, schedule: Q04DX003 (sc), vehicle: olive oil, sesame oil, peanut oil) 95 % of control; (dose: 200.0 mg/kg/injection, schedule: Q04DX003 (sc), vehicle: olive oil, sesame oil, peanut oil) 99 % of control; (dose: 400.0 mg/kg/injection, schedule: Q04DX003 (sc), vehicle: olive oil, sesame oil, peanut oil) 114 % of control.
Regarding `CCCCc1c(N)nc(N)nc1N`, the T/C (dose: 75.0 mg/kg/injection, schedule: Q01DX001 (ip), vehicle: saline with Tween-80) was 103 % of control.
Regarding `CCCCCCC(CCCCCC)CC1CCCC1`, the T/C was 103 % of control (dose: 50.0 mg/kg/injection, schedule: Q04DX002 (sc), vehicle: olive oil, sesame oil, peanut oil); 97 % of control (dose: 100.0 mg/kg/injection, schedule: Q04DX002 (sc), vehicle: olive oil, sesame oil, peanut oil); 97 % of control (dose: 200.0 mg/kg/injection, schedule: Q04DX002 (sc), vehicle: olive oil, sesame oil, peanut oil).
For `N#CSCc1ccc(CSC#N)c(Br)c1`, the T/C (dose: 75.0 mg/kg/injection, schedule: Q01DX009 (ip), vehicle: saline) is 88 % of control.
As to `[O-][n+]1c2ccc(Cl)cc2nc2ccc(Cl)cc21`, the T/C was 95 % of control (dose: 25.0 mg/kg/injection, schedule: Q04DX003 (ip), vehicle: Klucel (hydroxypropylcellulose) (HPC)); 93 % of control (dose: 50.0 mg/kg/injection, schedule: Q04DX003 (ip), vehicle: Klucel (hydroxypropylcellulose) (HPC)); 92 % of control and 88 % of control under setting [2].
Consider `CCCCO.[Sn]`, for which the T/C runs as follows: (dose: 50.0 mg/kg/injection, schedule: Q01DX009 (ip), vehicle: saline) 99 % of control and 109 % of control; (dose: 100.0 mg/kg/injection, schedule: Q01DX009 (ip), vehicle: saline) 96 % of control and 109 % of control; (dose: 200.0 mg/kg/injection, schedule: Q01DX009 (ip), vehicle: saline) 99 % of control and 106 % of control.
For `COc1cccc(N=Cc2ccc(C=Nc3cccc(OC)c3)cc2)c1`, the T/C is 89 % of control (dose: 100.0 mg/kg/injection, schedule: Q01DX009 (ip), vehicle: Klucel (hydroxypropylcellulose) (HPC)); 94 % of control under setting [3]; 88 % of control under setting [4].
Regarding `CCCCCCCCS(=O)(=O)CCO`, the T/C was 93 % of control (dose: 100.0 mg/kg/injection, schedule: Q01DX009 (ip), vehicle: carboxymethylcellulose (CMC)); 106 % of control (dose: 100.0 mg/kg/injection, schedule: Q04DX003 (ip), vehicle: carboxymethylcellulose (CMC)); 90 % of control under setting [1]; 101 % of control (dose: 200.0 mg/kg/injection, schedule: Q04DX003 (ip), vehicle: carboxymethylcellulose (CMC)); 95 % of control (dose: 400.0 mg/kg/injection, schedule: Q01DX009 (ip), vehicle: carboxymethylcellulose (CMC)); 106 % of control (dose: 400.0 mg/kg/injection, schedule: Q04DX003 (ip), vehicle: carboxymethylcellulose (CMC)).
Take `CCCCCC(C)O[Si](C)Oc1ccccc1` (stereo not drawn): the T/C was 100 % of control (dose: 100.0 mg/kg/injection, schedule: Q04DX003 (ip), vehicle: saline with Tween-80); 100 % of control (dose: 200.0 mg/kg/injection, schedule: Q04DX003 (ip), vehicle: saline with Tween-80); 91 % of control (dose: 400.0 mg/kg/injection, schedule: Q04DX003 (ip), vehicle: saline with Tween-80).
Regarding `COC(=O)C1=C(C(=O)OC)C2CCC1C2`, the T/C runs as follows: (dose: 100.0 mg/kg/injection, schedule: Q01DX009 (ip), vehicle: other) 103 % of control; (dose: 200.0 mg/kg/injection, schedule: Q01DX009 (ip), vehicle: other) 103 % of control; (dose: 400.0 mg/kg/injection, schedule: Q01DX009 (ip), vehicle: other) 98 % of control.
